The text below walks through data of article PMC4684281, “Antitumor Effects and Mechanism of Novel Emodin Rhamnoside Derivatives against Human Cancer Cells In Vitro” (PLoS ONE, 2015).

Where “and” joins values, the source holds several entries; their conditions need not be identical. Equal values may be shown once.

Assay [1] concerns HepG2 cells. The experiment in a line: DNA ladder assay. The class given is cell-based, Human. The settings on record: HepG2, 2.5μM, 5.0μM and 10.0μM. The protocol:
DNA ladder formation is an important criterion to determine cells apoptosis. To confirm the apoptosis induction effect, the analysis of DNA fragmentation was conducted. HepG2 cells in logarithmic growth phase were inoculated in 10cm diameter culture plates at a density of 5×10^5 cells with 12 mL complete medium containing 10% fetal calf serum, and allowed to attach at 37°C for 24 hours. Afterwards, cells were treated with EM-d-Rha and Cisplatin at a specific concentration. Cells were cultured and harvested as described previously. Finally, DNA of all samples was extracted using the apoptosis DNA ladder detection kit following the manufacturer’s instructions. The DNA fragmentation was assayed by electrophoresis on a 1.5% agarose gel containing […] ethidium bromide (EtBr) at 5V/cm for 2.5hours and photographed under ultraviolet. The size of the DNA fragmentation was compared with the marker (molecular weight standard).

Another assay relates to HUVEC. The experiment in a line: MTT cell viability assay, HUVEC. It is filed as cell-based. The note with it: Homo sapiens, MTT at 72h, n=3, mean±S.E.M, read-out: IC50 for EM-d-Rha, HUVEC. The protocol: (§1) The viability of cancer cells was evaluated by MTT assay. Briefly, cells were inoculated in 96-well culture plates at the density of 1×10^4/well with complete medium containing 10% fetal calf serum in a final volume of 0.2 mL. Cells were incubated at 37°C for at least 24 hours to allow optimal attachment. When the cells reached 60% confluence, they were treated with Cisplatin, HCPT and emodin rhamnopyranosides derivatives in various concentrations, and incubated in a humidity-controlled 5%CO2 incubator at 37°C for 72 hours. Medium were exchanged once every 24 hours. Cell control group and blank group were set up in the same manner, with each group having six parallel wells. Cell survival was assessed by directly adding 22 μL of 5mg/mL MTT to 0.2 mL medium. After three hours, the formazan precipitate was dissolved in 200μL isopropanol per well, and completely mixed under room temperature. Afterwards, the optical density of each well was detected at 570 nm wavelength by iMark microplate reader (Bio-rad,USA). This experiment was repeated at least three times.
(Formazan colour is commonly taken as a measure of viable cells.)

Assay [2] has as its system HepG2 cells. The experiment in a line: Fluorescence microscopy assay (Hoechst 33342). The class given is cell-based, Human. The settings on record: HepG2, varying concentrations (0.1μM; 0.5μM; 2.5μM), 48h, dosage-dependent. As to the method:
HepG2 cells were inoculated in duplicate at 3×10^5/well density in 6-well plate, and allowed to attach at 37°C for 24 hours. Afterwards, cells were treated with 10 μM HCPT, 25 μM emodin and specific concentration EM-d-Rha (0.1μM, 0.5μM, 2.5μM), respectively. Cell control group was set in the same way. […] Medium were exchanged as described previously. In the end, all medium were discarded and cells were digested with 2mL 0.25% Trypsin-EDTA solution at 37°C for 5 min. After cells were harvested, cells were washed with PBS twice followed by centrifuging at 300×g for 5 minutes. Finally, cells were re-suspended in 100μL cold PBS after the supernatant was discarded. Cells were cultured in the dark for 10 minutes at room temperature after adding 100μL 1mg/mL Hoechst 33342 staining solution. Cells were harvested again as described previously to discard the staining solution. Wash the harvested cells twice with PBS before applying to the clean glass slides. The morphological changes of cells nuclei were observed and photographed under the fluorescence microscope (Olympus, Japan) at 350 nm excitation wavelength. The experiment was repeated three times.

A further assay relates to SGC-7901 cells. The experiment in a line: MTT cell viability assay, SGC-7901. The class given is cell-based. The note with it: Homo sapiens. As to the method: as §1
Another assay deals with OVCAR-3 cells. The experiment in a line: Flow cytometry apoptosis analysis (Annexin V/7-AAD), OVCAR-3. It is filed as cell-based, Human. The note with it: 48h (Fig 8 legend: 72h); for Late apoptosis: control 4.87±1.42; for Early apoptosis: control 13.01±5.81; for Living cell: control 81.36±8.14. (In general: Flow cytometry measures light scatter and fluorescence of single cells or particles in a stream.)

Where [3] appears, read: OVCAR-3, 10μM, listed as EM-d-Rha.

Broadly, the IC50 is the concentration needed to halve the response being measured. A word on the inhibition: it is the relative decrease from the control value, in per cent. For `CC(=O)O[C@@H]1[C@@H](O[C@@H]2O[C@@H](C)[C@H](O)[C@@H](OC(C)=O)[C@H]2OC(C)=O)[C@H](C)O[C@@H](Oc2cc(O)c3c(c2)C(=O)c2cc(C)cc(O)c2C3=O)[C@@H]1OC(C)=O` [S-8, 3-(2”,3”-Di-O-acetyl-α-L-rhamnopyranosyl-(1→4)-2’,3’-di-O-acetyl-α-L-rhamnopyranosyl)-emodin], the “DNA fragmentation (agarose gel electrophoresis)” value in the assay on HepG2 cells [1] was “typical ladder or fragmentation shape”. Further, the 50% inhibitory concentration (IC50) stood at 18.7 ± 3.9 µM in the assay with HUVEC and 1990 ± 120 nM with SGC-7901 cells (MTT at 72h, n=3, mean±S.E.M, read-out: IC50 for EM-d-Rha, SGC-7901). Moreover, the “Nuclear morphology, Hoechst 33342” value in the assay with HepG2 cells [2] is “nuclear shrinkage and DNA condensation”. Besides, the inhibition at 0.1 µM in the assay with SGC-7901 cells (SCG-7901, 0.1μM, MTT 72h, read-out: The inhibition rate of EM-d-Rha) was 20.1 ± 0.18%. For the same compound, in the assay on SGC-7901 cells (SCG-7901, 0.5μM, MTT 72h, read-out: The inhibition rate of EM-d-Rha), the inhibition at 0.5 µM was 40.99 ± 0.02%. In addition, the inhibition at 2.5 µM in the assay on SGC-7901 cells (SCG-7901, 2.5μM, MTT 72h, read-out: The inhibition rate of EM-d-Rha) is 42.63 ± 0.02%. The inhibition at 12.5 µM in the assay with SGC-7901 cells (SCG-7901, 12.5μM, MTT 72h, read-out: The inhibition rate of EM-d-Rha) is 95.01 ± 0.01%. The inhibition at 62.5 µM in the assay on SGC-7901 cells (SCG-7901, 62.5μM, MTT 72h, read-out: The inhibition rate of EM-d-Rha) was determined as 94.33 ± 0.05%. The Late apoptosis in the assay with OVCAR-3 cells (OVCAR-3, 2.5μM) is recorded as 3.30±2.95%; with OVCAR-3 cells (OVCAR-3, 5μM) it was 0.81±0.05 %; in the assay on OVCAR-3 cells (OVCAR-3, 10μM) it was 0.35±0.06 %. The Early apoptosis is 70.60±23.06 % with OVCAR-3 cells (OVCAR-3, 2.5μM); 90.52±0.20 % in the assay on OVCAR-3 cells (OVCAR-3, 5μM); 95.09% and 95.09±1.03 % in the assay on OVCAR-3 cells (setting [3]). In addition, the Living cell was 25.82±20.14 % in the assay on OVCAR-3 cells (OVCAR-3, 2.5μM); 8.60±0.19 % in the assay on OVCAR-3 cells (OVCAR-3, 5μM); 4.53% and 4.53±0.99 % with OVCAR-3 cells (setting [3]).
